Assay results taken from ChEMBL document CHEMBL4616582, “Green recipes to quinoline: A review” (Eur J Med Chem, 2019).
Converted amounts (≈) assume the structure as drawn.

How the values were obtained:
Type in all cases: functional, organism-based
[1] = test system: Leishmania donovani; experiment: Antileishmanial activity against Leishmania donovani amastigotes
[2] = test system: Leishmania donovani; experiment: Antileishmanial activity against Leishmania donovani promastigotes
[3] = test system: Plasmodium falciparum; experiment: Antimalarial activity against chloroquine and quinine sensitive Plasmodium falciparum

Row | IC50 [1] [µg/mL] | IC50 [2] [µg/mL] | IC50 [3] [µg/mL] | SMILES
1 | 1.34 to 3.26 (≈ 5.58 to 13.6 µM) | 1.34 to 3.26 (≈ 5.58 to 13.6 µM) | – | COc1ccc(/C(O)=C/C(=S)SC)cc1
2 | 1.34 to 3.26 (≈ 5.47 to 13.3 µM) | 1.34 to 3.26 (≈ 5.47 to 13.3 µM) | – | CSC(=S)/C=C(\O)c1ccccc1Cl
3 | 1.34 to 3.26 (≈ 6.37 to 15.5 µM) | 1.34 to 3.26 (≈ 6.37 to 15.5 µM) | – | CSC(=S)/C=C(\O)c1ccccc1
4 | – | – | 0.042 to 0.09 (≈ 0.0695 to 0.149 µM) | COc1ccc(NN2C(N)=C(C#N)C(c3c(C)nn(-c4ccccc4)c3Oc3ccccc3F)C3=C2CC(C)(C)CC3=O)cc1 (stereo not drawn)

Continued, molecule first:

Row | SMILES | IC50 [1] [µg/mL] | IC50 [2] [µg/mL] | IC50 [3] [µg/mL]
5 | CCCCCCCCCCCCCCCCOP(=O)([O-])OCC[N+](C)(C)C [MILTEFOSINE] | 8.2 (≈ 20.1 µM) | 4.54 (≈ 11.1 µM) | –
6 | CSC(=S)/C=C(\O)c1ccco1 | 1.34 to 3.26 (≈ 6.69 to 16.3 µM) | 1.34 to 3.26 (≈ 6.69 to 16.3 µM) | –
7 | CSC(=S)/C=C(\O)c1cccc(C)c1 | 1.34 to 3.26 (≈ 5.97 to 14.5 µM) | 1.34 to 3.26 (≈ 5.97 to 14.5 µM) | –
8 | CSC(=S)/C=C(\O)c1cccs1 | 1.34 to 3.26 (≈ 6.19 to 15.1 µM) | 1.34 to 3.26 (≈ 6.19 to 15.1 µM) | –
9 | Nc1ccc(Cl)cc1C(=O)c1ccccc1 | 1.34 to 3.26 (≈ 5.78 to 14.1 µM) | 1.34 to 3.26 (≈ 5.78 to 14.1 µM) | –
10 | Nc1ccccc1C(=O)c1ccccc1 | 1.34 to 3.26 (≈ 6.79 to 16.5 µM) | 1.34 to 3.26 (≈ 6.79 to 16.5 µM) | –
11 | CSC(=S)/C=C(\O)c1ccc(C)cc1 | 1.34 to 3.26 (≈ 5.97 to 14.5 µM) | 1.34 to 3.26 (≈ 5.97 to 14.5 µM) | –
12 | CSC(=S)/C=C(\O)c1ccc(C(F)(F)F)cc1 | 1.34 to 3.26 (≈ 4.81 to 11.7 µM) | 1.34 to 3.26 (≈ 4.81 to 11.7 µM) | –
